According to patent publication US8093231B2, “Sulfonylethyl phosphorodiamidates” (Telik, Inc., priority 2004, dated 2012):
Like-named read-outs stand apart in the source and are kept apart here.

Experiments:
[1] = system: LNCap (prostate carcinoma); assay: Cytotoxicity/growth inhibition assay, LNCap; format: cell-based, human; conditions: read-out: IC50 (LNCap)
Outline: (§1)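 Test compounds in DMSO (0.1–200 μM; final DMSO 0.5%) added to freshly diluted cells (3×10^3 cells/mL MX-1 and DLD-1, 6×10^3 cells/mL LNCap), triplicate wells. Cultured ~three doubling times (3 days MX-1, 4 days DLD-1/LNCap). CellTiter-Glo luminescence, 15 min room temperature; growth expressed as % of DMSO solvent control.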

[2] = system: DLD-1 (colorectal adenocarcinoma); assay: Cytotoxicity/growth inhibition assay, DLD-1; format: cell-based, human; conditions: read-out: IC50 (DLD-1)
Outline: as §1

[3] = system: HCT116 (human colon cancer) tumor; assay: HCT116 xenograft assay, intraperitoneal administration; format: in vivo, athymic nu/nu mice; conditions: for inhibition of tumor growth compared to vehicle: measured 13 days after start; for activity in HCT116 xenograft assay: intraperitoneal once/day for 11 days
Description: Male athymic nu/nu mice, 6-8 weeks old (approximately 20 g), were implanted subcutaneously in the right fore flank with 20-30 mg pieces of HCT116 (human colon cancer) tumor harvested from similar mice that had previously been implanted with the HCT116 tumor. Approximately 7-10 days after tumor transplantation, when the tumor weight was approximately 50-200 mg, the mice were assigned to treatment groups. Groups of mice were treated with compounds 5A or 13A at 100 mg/Kg, or compound 70A at 150 mg/Kg, by intraperitoneal injection once/day for 11 days, with vehicle control. Tumor growth inhibition was measured 13 days after the start of treatment.

MX-1 (breast carcinoma) = assay: Cytotoxicity/growth inhibition assay, MX-1; format: cell-based, human; conditions: read-out: IC50 (MX-1)
Outline: as §1

[4] = system: MX-1 (human breast cancer) tumor; assay: MX-1 xenograft assay, intraperitoneal administration; format: in vivo, athymic nu/nu mice; conditions: for activity in MX-1 xenograft assay / tumor growth inhibition compared to vehicle: 100 mg/Kg intraperitoneal once/day for 5, 9, or 14 days; for tumor inhibition / dose dependence of tumor inhibition: intraperitoneal; for dose dependence of tumor inhibition: range of doses and treatment times
Description: (§2) Female athymic nu/nu mice (Harlan, Indianapolis, Ind., U.S.A. or similar vendor), 6-8 weeks old (approximately 20 g), were implanted in the mammary fat pad of the right fore flank with 20-30 mg pieces of MX-1 (human breast cancer) tumor harvested from similar mice that had previously been implanted with the MX-1 tumor. Approximately 7-10 days after tumor transplantation, when the tumor weight was approximately 50-200 mg, the mice were assigned to treatment groups. […] All compounds were active in this assay, with tumor growth inhibition compared to vehicle between 5% (compound 171A) and 99% (compound 13A), with most compounds causing at least 30% tumor growth inhibition. […] Compound 13A was tested at 25, 50, or 100 mg/Kg for 5 or 9 days, causing tumor inhibition between 19% (25 mg/Kg for 5 days) and 99% (100 mg/Kg for 9 days). Compound 70A was tested at 50, 100, and 150 mg/Kg for 5 or 12 days, causing tumor inhibition between 16% (50 mg/Kg for 5 days) and 95% (150 mg/Kg for 12 days).

[5] = system: MiaPaCa-2 (human pancreatic cancer) tumor; assay: MiaPaCa-2 xenograft assay, oral administration; format: in vivo, athymic nu/nu mice; conditions: 200 mg/Kg for 7 days
[6] = system: MiaPaCa-2 (human pancreatic cancer) tumor; assay: MiaPaCa-2 xenograft assay, intraperitoneal administration; format: in vivo, athymic nu/nu mice; conditions: 100 mg/Kg intraperitoneal once/day for 14 days; for inhibition of tumor growth compared to vehicle: measured 15 days after start
Description: Male athymic nu/nu mice, 6-8 weeks old (approximately 20 g), were implanted subcutaneously in the right fore flank with 20-30 mg pieces of MiaPaCa-2 (human pancreatic cancer) tumor harvested from similar mice that had previously been implanted with the MiaPaCa-2 tumor. Approximately 7-10 days after tumor transplantation, when the tumor weight was approximately 50-200 mg, the mice were assigned to treatment groups. Groups of mice were treated with compound 13A or 70A at 100 mg/Kg by intraperitoneal injection once/day for 14 days, with vehicle control. Tumor growth inhibition was measured 15 days after the start of treatment.

[7] = system: MX-1 (human breast cancer) tumor; assay: MX-1 xenograft assay, oral administration; format: in vivo, athymic nu/nu mice; conditions: for inhibition of tumor growth compared to vehicle / dose dependence of tumor inhibition, oral: measured 13 days after start; for activity in MX-1 xenograft assay, oral / dose dependence of tumor inhibition, oral: gavage once/day for 5 days
Description: as §2
A study similar to that described in In vivo Example 1 was performed using oral administration of compounds 13A and 70A. Groups of mice were treated with compound 13A at 50, 100, or 300 mg/Kg, or compound 70A at 100, 150, 200, or 250 mg/Kg, by gavage once/day for 5 days (with vehicle control). Tumor growth inhibition was measured 13 days after the start of treatment.

DLD-1 cells = assay: Cell cycle analysis; format: cell-based, human; conditions: approximately IC75-85, one and two days, propidium iodide FACS
[8] = system: P388 murine leukemia cell line; assay: Cross-resistance assay; format: cell-based; conditions: P388 vs doxorubicin-resistant derivative; cross-resistant if resistance ratio approximately 2 or higher
Source text: (§3) The human cancer cell lines DLD-1 (colorectal adenocarcinoma), LNCap (prostate carcinoma), and OVCAR-3 (ovarian carcinoma) were obtained from the American Type Culture Collection, Manassas, Va., U.S.A., and HL-60 (promyeloid myelocytic leukemia), MX-1 (breast carcinoma), P388, and P388ADR from the National Cancer Institute, Bethesda, Md., U.S.A. Carboplatin, doxorubicin, and melphalan were obtained from Sigma-Aldrich Chemical Company, St. Louis, Mo., U.S.A. The CellTiter-Glo assay kit was obtained from Promega Corporation, Madison, Wis., U.S.A., and the Cellular DNA Cytometric Analysis Reagent Kit from Roche Diagnostics Corporation, Indianapolis, Ind., U.S.A. Lambda DNA was obtained from New England Biolabs, Beverly, Mass., U.S.A., and SYBR-Gold from Molecular Probes, Inc., Eugene, Oreg., U.S.A. The DNeasy Tissue Kit was obtained from Qiagen Inc., Valencia, Calif., U.S.A., and AmpliTaq Gold DNA polymerase and PCR reagents from Applied Biosystems, Foster City, Calif., U.S.A. All products were used in accordance with manufacturer's directions. All assays were conducted in triplicate wells, with dimethyl sulfoxide (DMSO) solvent control. The extent of cell growth was expressed as a percentage of the signal from the solvent control wells.

Lambda DNA = assay: DNA damage assay; format: biochemical; conditions: 100 μM and 300 μM, room temperature, one day, PCR amplification
OVCAR-3 cell line = assay: Synergism assay; format: cell-based, human
Source text: as §3

[9] = LNCap cells, 4 days culture, CellTiter-Glo, 0.1-200 μM tested
[10] = DLD-1 cells, 4 days culture, CellTiter-Glo, 0.1-200 μM tested
[11] = 100 mg/Kg intraperitoneal once/day for 11 days
[12] = MX-1 cells, 3 days culture, CellTiter-Glo, 0.1-200 μM tested

Structure (SMILES) | IC50 [1, 9] [µM] | IC50 [2, 10] [µM] | IC50 (MX-1 (breast carcinoma); [12]) [µM] | activity in MX-1 xenograft assay [4] | IC50 ([2]; Homo sapiens, DLD-1, 96 h) [µM] | IC50 (MX-1 (breast carcinoma); Homo sapiens, MX1, 72 h) [µM] | further results
CCCCS(=O)(=O)CCOP(=O)(N(CCCl)CCCl)N(CCCl)CCCl [Compound 5A] | 42.8 | 6.6 | 14.3 | active | – | – | inhibition of tumor growth compared to vehicle [3, 11]: 10%; activity in HCT116 xenograft assay [3]: active
CNC(=O)CS(=O)(=O)CCOP(=O)(N(CCCl)CCCl)N(CCCl)CCCl [Compound 13A, N-methyl-2-[[2-[[bis[bis(2-chloroethyl)amino]phosphinyl]oxy]ethyl]sulfonyl]acetamide] | – | – | – | active | 7.1 | 11.7 | IC50 ([1]; Homo sapiens, LNCaP, 96 h): 53.5 µM; activity in MiaPaCa-2 xenograft assay, oral [5]: active; inhibition of tumor growth [5]: 82%; activity in MiaPaCa-2 xenograft assay [6]: active; inhibition of tumor growth compared to vehicle [6]: 78%; inhibition of tumor growth compared to vehicle [3, 11]: 43%; activity in HCT116 xenograft assay [3]: active; tumor growth inhibition compared to vehicle [4]: 99%; tumor inhibition ([4]; 25 mg/Kg for 5 days): 19%; tumor inhibition ([4]; 100 mg/Kg for 9 days): 99%; dose dependence of tumor inhibition [4]: dose-dependent tumor inhibition; inhibition of tumor growth compared to vehicle ([7]; 50 mg/Kg gavage once/day for 5 days): 63%; inhibition of tumor growth compared to vehicle ([7]; 300 mg/Kg gavage once/day for 5 days): 100%; activity in MX-1 xenograft assay, oral [7]: active; dose dependence of tumor inhibition, oral [7]: dose-dependent tumor inhibition
O=C(CS(=O)(=O)CCOP(=O)(N(CCCl)CCCl)N(CCCl)CCCl)N[C@@H](Cc1ccccc1)C(=O)O [Compound 15A, N-{2-[[2-[[bis[bis(2-chloroethyl)amino]phosphinyl]oxy]ethyl]sulfonyl]acetyl}-L-phenylalanine] | – | – | – | active | 13.7 | 23.6 | IC50 ([1]; Homo sapiens, LNCaP, 96 h): ≥ 200 µM
O=C(CS(=O)(=O)CCOP(=O)(N(CCCl)CCCl)N(CCCl)CCCl)NCCN1CCOCC1 [Compound 23A] | 47.5 | 6.6 | 25.9 | active | – | – | –
N[C@@H](CS(=O)(=O)CCOP(=O)(N(CCCl)CCCl)N(CCCl)CCCl)C(=O)O [Compound 70A, 3-[[2-[[bis[bis(2-chloroethyl)amino]phosphinyl]oxy]ethyl]sulfonyl]-L-alanine] | – | – | – | active | 10.7 | 36.7 | cell cycle effect (G2/M cycle block) (DLD-1 cells): induced a G2/M cycle block; activity in MiaPaCa-2 xenograft assay, oral [5]: active; inhibition of tumor growth [5]: 27%; activity in MiaPaCa-2 xenograft assay [6]: active; inhibition of tumor growth compared to vehicle [6]: 38%; inhibition of tumor growth compared to vehicle ([3]; 150 mg/Kg intraperitoneal once/day for 11 days): 26%; activity in HCT116 xenograft assay [3]: active; cross-resistance with doxorubicin [8]: not cross-resistant; DNA damage activity (Lambda DNA): only marginal DNA damage activity; tumor inhibition ([4]; 50 mg/Kg for 5 days): 16%; tumor inhibition ([4]; 150 mg/Kg for 12 days): 95%; dose dependence of tumor inhibition [4]: dose-dependent tumor inhibition; inhibition of tumor growth compared to vehicle ([7]; 100 mg/Kg gavage once/day for 5 days): 36%; inhibition of tumor growth compared to vehicle ([7]; 250 mg/Kg gavage once/day for 5 days): 96%; activity in MX-1 xenograft assay, oral [7]: active; dose dependence of tumor inhibition, oral [7]: dose-dependent tumor inhibition
O=P(OCCS(=O)(=O)Cc1ccccc1)(N(CCCl)CCCl)N(CCCl)CCCl [Compound 128A, α-[[2-[[bis[bis(2-chloroethyl)amino]phosphinyl]oxy]ethyl]sulfonyl]toluene] | – | – | – | active | 3.2 | 4.5 | cell cycle effect (G2/M cycle block) (DLD-1 cells): induced a G2/M cycle block; synergism with carboplatin (OVCAR-3 cell line): synergistic; cross-resistance with doxorubicin [8]: not cross-resistant; dose dependence of tumor inhibition [4]: dose-dependent tumor inhibition
O=C(c1ccco1)C1CCN(C(=O)c2ccc(CS(=O)(=O)CCOP(=O)(N(CCCl)CCCl)N(CCCl)CCCl)cc2)CC1 [Compound 171A] | 27.7 | 6.1 | 6.1 | active | – | – | tumor growth inhibition compared to vehicle [4]: 5%
CCOC(=O)CNC(=O)c1ccc(CS(=O)(=O)CCOP(=O)(N(CCCl)CCCl)N(CCCl)CCCl)cc1 [Compound 172A, α-[[2-[[bis[bis(2-chloroethyl)amino]phosphinyl]oxy]ethyl]sulfonyl]-4-[(ethoxycarbonylmethyl)-aminocarbonyl]toluene] | – | – | – | active | 6.1 | 4.8 | IC50 ([1]; Homo sapiens, LNCaP, 96 h): 31.6 µM
O=P(OCCS(=O)(=O)Cc1cccs1)(N(CCCl)CCCl)N(CCCl)CCCl [Compound 180A] | 16.8 | 4.9 | 9.3 | active | – | – | –
O=P(OCCS(=O)(=O)Cc1cccc[n+]1[O-])(N(CCCl)CCCl)N(CCCl)CCCl [Compound 182A] | 22.3 | 7.1 | 8 | – | – | – | –
Cc1ncc(CS(=O)(=O)CCOP(=O)(N(CCCl)CCCl)N(CCCl)CCCl)c(CO)c1O [Compound 183A] | 42.1 | 4.9 | 18.4 | – | – | – | –
Cc1c(O)c(CO)c(CS(=O)(=O)CCOP(=O)(N(CCCl)CCCl)N(CCCl)CCCl)c[n+]1[O-] [Compound 184A] | 94.8 | 5.3 | 28.9 | – | – | – | –
